Measurements as given in patent US11174249B2, “Cooling composition” (FIRMENICH SA, priority 2017, dated 2021).

Test: Solubility of compound of formula (I) in flavor solvents (Crystalline PV instrument, temperature solubility curve)
Format: physicochemical
Conditions: 22° C.
Method: A precise amount of the powder was weighed into a transparent 8 mL tube, 3 g of solvent was added, and the tube was sealed with a cap equipped with an integrated overhead stirrer. The tube was immediately transferred to a Crystalline PV instrument (Technobis Crystallization Systems, The Netherlands), and placed into a precooled reactor at 3° C. The sample was heated and stirred in the reactor at a rate of 0.1° C./min up to 60° C. Each reactor of the Crystalline PV instrument is equipped with an LED sensor and a digital camera, and data is acquired as real-time transmittance to detect turbidity or as video images for visualization. The solubility temperature is reached when all particles have dissolved. In order to establish a temperature solubility curve, at least 4 samples with different concentrations are measured. The data are fitted to an exponential curve according to the model of Hoffmann, and solubility as a function of temperature can be calculated by extrapolation. Under this method, the solubility of N-(1H-pyrazol-3-yl)-N-(thiophen-2-ylmethyl)-2-(p-tolyloxy)acetamide in different solvents, which could be used in flavor application, was measured.

Structure (SMILES) | Solubility (in Ethyl lactate) | Solubility (in Augeo Clean Multi) | Solubility (in Dowanol TPM) | Solubility (in Ethanol abs.) | Solubility (in Mint piperita) | Solubility (in PG) | Solubility (in triacetin) | Solubility (in triethyl citrate)
CCc1ccc(OCC(=O)N(Cc2cccs2)c2cc[nH]n2)cc1 [2-(4-ethylphenoxy)-N-(1H-pyrazol-3-yl)-N-(thiophen-2-ylmethyl)acetamide] | 26.1% |  |  |  |  |  |  | 
Cc1ccc(OCC(=O)N(Cc2cccs2)c2ccn[nH]2)cc1 [N-(1H-pyrazol-3-yl)-N-(thiophen-2-ylmethyl)-2-(p-tolyloxy)acetamide] | 8.6% | 5.7% | 5.4% | 3.3% | 2.1% | 0.4% | 1.2% | 3.1%
